From patent US20190008810A1, “METHOD FOR PREVENTION, TREATMENT AND ALLEVIATION OF INFECTIOUS DISEASES AND DISORDERS” (REPLICON HEALTH OY, priority 2016, published 2019)

Legend:
[1] = test system: IPA mice (conjunctival epithelium, lacrimal gland, goblet cells); assay: Intensified pathological attack (IPA) dry eye model in mice, Example 1a; assay type: in vivo; details: for decrease in the thickening of the conjunctiva compared to relevant control: 7-day IPA, statistically significant
Procedure: In this experiment, intensified pathological attacks towards the eye epithelium is used as a disease model for intensified infectious pressure. The protection of the DGA Activation is measured by inflammatory markers. Because the conjunctival epithelium faces outside environment, the conjunctiva was chosen as one important biomarker. In the following this dry eye disease (also known as keratoconjunctivitis sicca) model experiment is called as the intensified pathological attack model or IPA-model.
All animal experiments were carried out according to the Association for Research in Vision and Ophthalmology and the National Institute of Health (NIH) guidelines for the care and use of laboratory animals. The intensified pathological attack model (IPA-model) was induced to naïve seven-to-ten-week-old C57B1/B6J mice obtained from the vivarium at the University of Eastern Finland. In the experiment 4 cohorts of mice were tested, naïve wild-type mice with IPA (n=5), and IPA mice treated topically with either vehicle (n=5) or (topical) DGA (n=5), and additionally IPA treated mice with orally administered DGA with topical vehicle treatment (n=5). IPA was induced by a combination of scopolamine and exposure to a controlled adverse environment (low humidity, high temperature and high airflow for a period of 7 days) in the IPA-mice system. More detailed treatment and administrations were as follows: Group 1: Non-treated IPA mice, Group 2: IPA mice (topical application of PBS to one eye, the contralateral eye served as control), Group 3: IPA mice topical treatment with DGA (aqueous formulation to one eye, contralateral eye served as control), Group 4: IPA mice—systemic treatment with DGA (ad libitum with chow; topical application of PBS to one eye, the contralateral eye served as control).
The DGA Activation was induced be D-glyceric acid (in its calcium salt form). In the systemic administration, the DGA was mixed into chow ad libitum at the concentration of: 1) 65 mg/kg/day for the first 4 days, and at day 5 at the concentration of 130 mg/kg/day prior the dry-eye induction; 2) thereafter the concentration was 130 mg/kg/day for the whole follow-up period of 7 days. In the topical treatment, the DGA was administered topically, as aqueous formulation in PBS. […]
Tear volume was measured for groups 3 and 4 and later comparison results for group 2 were received. […] In addition, animals were monitored daily for general health status. The lacrimal glands were embedded into paraffin, sectioned, stained and analyzed for possible pathology.

[2] = test system: seasonal flu or similar infectious disease; assay type: in vivo, human
[3] = test system: primary human hepatocytes; assay: Net ROS generation in human primary hepatocytes; assay type: cell-based; details: donors
Procedure: D-glycerate is coded as RH013001 in the graph. […] ARE -activation happens when Nrf2 detaches from cytosolic KEAP1 enzyme and moves to nucleus (SCHEME B).
FIG. 13b: Gene Expression results from Primary Hepatocytes after 48 h+2 h of the DGA Activation vs. 0-control. […] Combined test for PGC-1a yielded P-value of some 10%. Primary human hepatocytes were purchased from Celsis In Vitro Technologies (1450 South Rolling Road Baltimore, Md. 21227, USA). Primary hepatocytes were received from three different post mortem human donators. […] This is also the case for DOO.

fever = assay: Acute fever response in two humans under infection, Example 4; assay type: in vivo, human
Procedure: FIG. 11: Numerical values of short term reduction in fever in disease after the DGA Activation (administration approximately 300 mg of D-glyceric acid mixed in water as calcium salt (=2× 200 mg of DGAcs). The results in this table are presented graphically in FIG. 5 and explained in Example 4. Additional Notes: 300 mg of D-glyceric acid is more precisely the same as 430 mg of calcium salt dehydrate formulation, because one calcium atom and 2 water molecules make up some 30% of the total molecular weight. *) Reduction in fever materialized but the symptoms of the disease e.g. pain remained. **) Rather stressful “absent day from work arrangements” by e-mail between 0 minutes and 15 minutes' measurements could possibly have kept fever up.
In Example 4 acute 15 min, 30 min, etc. fever responses of the DGA Activation in two individual under viral and/or bacterial infection (subjects S1 and S4 from e.g. Examples 1b-1f) were measured. Results are presented in graphical format in FIG. 5 and in numeric format in FIG. 11. The measurements of body temperatures after the DGA Activation were made in physiological state where infections (diseases) continue but they have nevertheless more or less stabilized. In this kind of a situation the immune system is activated above healthy and/or subclinical level. The objective was to verify possible spillover effects from reduction in inflammation and in oxidative stress towards fever. At the same the target was to gain more info on the size of suitable administration. (Before initiating any human tests full proof of safety was received from 3 week in vivo experiments with rats. The doses used in these clinical tests are at maximum less than 5% of the safe doses with rats in the 3-week safety tests.)

Q: Which “number of goblet cells vs 0-controls” value ([1]; DGA activation groups vs 0-controls) does the source give for `O=C(O)[C@H](O)CO` [DGA, D-glyceric acid] here?
A: No meaningful differences

Q: And the “lacrimal gland pathology (inflammation)” value ([1]; systemic (group 4) vs placebo 0-control)?
A: reduces inflammation statistically significantly

Q: And the “decrease in the thickening of the conjunctiva compared to relevant control” value ([1]; systemic, mixed with chow 130 mg/kg/day)?
A: ~20%

Q: And the “decrease in the thickening of the conjunctiva compared to relevant control” value ([1]; topical eye drops 30 μg/ml, 5 μL 4× daily)?
A: ~20%

Q: And the “time to alleviation of all symptoms of two-week long infection” value ([2]; S1)?
A: 24 h

Q: What about the “time to visible alleviation” value ([2]; S1) of the same compound?
A: 12 to 24 h

Q: What about the “body temperature (fever)” value ([2]; S1, Monday 0130 pm after 2 doses of 3×200 mg Sunday night and 2×200 mg Monday morning, 37.0 on Sunday) of the same compound?
A: 36.62 celcius

Q: And the body temperature ([2]; S1, Monday 0700 pm)?
A: 36.61 celcius

Q: What about the “time until prolonged mild disease state disappeared” value ([2]; human, in vivo) of the same compound?
A: 2 days

Q: And the “net ROS generation” value [3]?
A: declined for both JGM and CDP statistically very significantly

Q: What about the “reducing fever due to infection” value (fever; 2×200 mg oral dose mixed into water) of the same compound?
A: very effective in reducing fever

Q: What about the “immediate impact on fever” value (fever; S1, 1×200 mg, Monday 0908 pm) of the same compound?
A: didn't seem to have any significant immediate impact on fever

Q: What about the return of fever (fever; S1 and S4) of the same compound?
A: returns almost to the starting level in 1 hour or at least in 1.5 hours

Q: What about the “time to reduction of fever” value (fever; S1 and S4, 2×200 mg of DGAcs in water) of the same compound?
A: 15 to 30 min

Q: What about the decline of fever (fever; statistically very significant) of the same compound?
A: modest
